Measured values published in patent publication US11655244B2, “Carbazole compounds and methods of use thereof” (GSNO Therapeutics, Inc, priority 2017, dated 2023).
“Also recorded” adds a separate entry of the source.

Legend:
IL-6 = assay: LPS/cytokine assay (mouse inflammation assay), IL-6; format: in vivo, CD-1 male mice
Protocol: Table 2b also includes additional biological data of compounds described herein. The LPS/cytokine Assay was carried out in CD-1 male mice. The assay measured the level of various cytokines, including IL-6, IL-17, and IL-23, after induction by bacterial liposaccharide (LPS). Compounds were dosed by IP or IV routes of administration at varying times before and after LPS and the cytokine concentrations were measured at varying times, typically 6 hrs, after LPS by standard methods using ELISA kits.
BIOLOGICAL TESTING: Compounds 10 and 17 from Table 1 were tested in a mouse inflammation assay. Briefly, CD-1 mice were dosed with compound, 12 hrs before injecting mice I.P. with the potent cytokine inducer, bacterial lipopolysaccharide (LPS). The mice were euthanized 6 hrs after the LPS was injected and their serum prepared by standard methods. The concentration of IL-6 in the serum of each experimental animal was measured using an IL-6 ELISA kit from Enzo. The compounds tested were active.
This LPS/cytokine assay was carried out in healthy mice and measured the level of cytokine IL-6, IL-17, and 23 induction by LPS. Compounds are dosed (either orally (“p.o.”) or intravenously (“i.v.”) at varying times before and after LPS, and the cytokines are measured at varying times after LPS. The effect of the tested compounds (Table 5) on IL-6 release is shown in FIG. 7. The effect of the tested compounds (Table 6) on IL-17 an IL-23 release is shown in FIG. 11 and FIG. 12, respectively.

[1] = system: Bleomycin-induced idiopathic pulmonary fibrosis model in male C57BL/6 mice; assay: Bleomycin-induced idiopathic pulmonary fibrosis model; format: in vivo; settings: 10 mg/kg, i.p., once daily from day 14 to 28
Protocol: Compound 17 was made-up fresh every 4 days. A required amount of the test compound was weighed in a glass vial and the purity factor was calculated. A stock solution of 1 mg/ml (10 mg/kg) was made in distilled water (pH 8) and the subsequent 3 and 1 mg/kg doses (concentrations) were obtained by serial dilution of the 1 mg/ml stock solution. A clear and transparent solution was observed. Animals were dosed with Compound 17 at 1 mg/kg, 3 mg/kg and 10 mg/kg, i.p (intraperitoneal), once daily from day 14 to 28.
Pirfenidone was weighed in a glass vial and suspended in 0.5% methyl cellulose to obtain a 10 mg/ml formulation. A clear homogenous suspension was observed. Animals were dosed with Pirfenidone at 100 mg/kg, p.o., b.i.d., from day 14 to 28.

db/db mice = assay: Insulin and glucose tolerance tests, survival and 8-isoprostane in db/db diabetic mice; format: in vivo
Protocol: Compound 17 was studied in 6 week intra-gastric insulin and glucose tolerance tests in db/db mice dosed orally with Compound 17 at 10 mg/kg for 6 weeks qd. The male db/db mice were started on study at 6 weeks of age and were given a 60% high fat diet to increase the diabetic phenotype.
(§1) Vascular reactivity: Db/db mouse aorta segments were equilibrated in oxygenated PBS (95% O2 and 5% CO2) at 37° C. Following equilibration, 1 μM phenylephrine was added to each ring for submaximal contraction. After stabilization, Compound 17 was added to the rings and the effect on the muscle tone of the aorta segments was monitored with a tensometer as dose-responses from 10^-8 M to 10^-5 M for acetylcholine (“Ach”) and A23187 (5-(methylamino)-2-({(2R,3R,6S,8S,9R,11R)-3,9,11-trimethyl-8-[(1S)-1-methyl-2-oxo-2-(1H-pyrrol-2-yl)ethyl]-1,7-dioxaspiro[5.5]undec-2-yl}methyl)-1,3-benzoxazole-4-carboxylic). 8-Isoprostane was measured in plasma and heart homogenates by standard Elisa methods.

[2] = system: Db/db mouse aorta segments; assay: Vascular reactivity of aorta segments (tensometer); settings: db/db mice; vs vehicle
Protocol: as §1

GSNOR enzyme = GSNOR enzyme (Homo sapiens, UniProt P11766); assay: GSNOR inhibition assay (rate of NADH consumption, 340 nm absorbance); format: biochemical; settings: Table 2b; read-out: IC50 Micromolar
Sequence of GSNOR enzyme (P11766 whole entry): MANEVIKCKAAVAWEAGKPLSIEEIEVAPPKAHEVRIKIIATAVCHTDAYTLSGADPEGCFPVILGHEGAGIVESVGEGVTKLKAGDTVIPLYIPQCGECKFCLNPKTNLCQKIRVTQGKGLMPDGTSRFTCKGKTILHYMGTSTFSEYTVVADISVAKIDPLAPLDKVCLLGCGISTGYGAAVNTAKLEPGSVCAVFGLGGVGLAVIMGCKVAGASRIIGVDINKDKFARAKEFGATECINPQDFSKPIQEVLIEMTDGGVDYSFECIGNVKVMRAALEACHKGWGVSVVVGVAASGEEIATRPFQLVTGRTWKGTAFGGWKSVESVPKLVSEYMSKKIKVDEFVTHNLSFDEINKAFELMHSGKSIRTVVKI

## NC(=O)CCn1c2ccc(-n3ccnc3)cc2c2ccc(CCC(=O)O)cc21 [Compound 17, 3-(imidazol-1(H)-yl)-7-(2-carboxylethyl)-9(H)-(2-aminocarbonylethyl) carbazole]
IL-6; CD-1 male mice, IP or IV, cytokine typically 6 hrs after LPS
  LPS/IL6 Lowest tested active: 0.03 mg/kg
IL-6; dosed 12 hrs before LPS I.P., serum 6 hrs after LPS
  IL-6 in serum after LPS (mouse inflammation assay): active
[1]
  pulmonary fibrosis (Ashcroft score and percentage collagen proportionate area) vs disease control: notable mitigation of pulmonary fibrosis; also recorded: decreased lung fibrosis
db/db mice; 10 mg/kg orally qd for 6 weeks, 60% high fat diet
  insulin and glucose tolerances: statistically significantly reduced insulin and glucose tolerances
db/db mice; db/db mice, vs vehicle
  amount of F2-IsoPs in cardiac tissue (myocardial 8-isoprostane): significantly reduces
  increase of survival in severely debilitated diabetic mice: 66%
[2]
  vascular reactivity: increased their vascular reactivity
GSNOR enzyme
  IC50: 1000 to 5000 nM
